# Source: patent US9447040B2, “Tricyclic compounds, compositions comprising them and uses thereof” (YISSUM RESEARCH DEVELOPMENT COMPANY OF THE HEBREW …, priority 2011, dated 2016)
# Where “and” joins values, the source holds several entries; their conditions need not be identical. Identical values can stand only once. Entries after “also recorded” stand apart in the source; their conditions may differ.
# Columns and labels:
# s.c. adipose tissue = test: Single subcutaneous (s.c.) injection to rats, s.c. fat; assay type: in vivo, SD male rats; conditions: single s.c. 25 mg/kg at 5 sites on left side, examined after 3 weeks
# Method: SD male rats of about 400 g body weight were s.c. injected once (t=0) following light anesthesia with Ketamine-Xylazine.
# MTK-012, at a final concentration of 10 mg/ml, was dissolved in a vehicle containing: 2.3% sodium decanoate (C10, Sigma, C4151), 2.3% sodium dodecanoate (C12, Sigma, L9755), 10% Solutol HS 15 (BASF, cat#06466701), 40% Propylene-Glycol (Sigma, P4347) and 45% Triacetin (Aldrich, cat#525073).
# The injection of 1 ml MTK-012 (=25 mg/kg) was performed as follows: the left side of the rats body was shaved and s.c. injections, 0.2 ml each, were administered at 5 sites, equally distributed along the left side of the rats. The rats were sacrificed after 3 weeks and inner part of their skin was examined. It is evident that the s.c. adipose tissue was reduced (visibly shown) in the treated rats (FIGS. 3B and 3D), as manifested by the exposure of the underneath blood vessels, as compared with the same anatomical area in FIGS. 3A and 3C. It should be noted that although the injection was performed unilaterally, the effect expand to the entire subcutis.
# [1] = biological target: protein kinase CDC42-binding-protein-kinase-alpha (CDC42BPA or MRCKA) (Homo sapiens, UniProt Q5VT25); test: screening against 191 different protein kinases; assay type: biochemical; conditions: screened against 191 different protein kinases
# nap WAT = test: Intra-nap fat-pad injection to Psammomys on high-fat diet, nap WAT; assay type: in vivo
# Method: Ten 2-month old female pasmmomys were subjected to high-fat diet for 5 weeks prior to commencement of experiment.
# 0.1 ml vehicle (2.3% sodium decanoate (C10, Sigma, C4151), 2.3% sodium dodecanoate (C12, Sigma, L9755), 10% Solutol HS 15 (BASF, cat#06466701), 40% Propylene-Glycol (Sigma, P4347) and 45% Triacetin (Aldrich, cat#525073))
# 0.1 ml MTK-012 (concentration of 4 mg/ml in above vehicle).
# 0.1 ml MTK-013 (concentration of 4 mg/ml in above vehicle).
# Intra nap fat-pad injections of each composition were administered to animals in each treatment groups (3, 3, and 4 animals in each treatment group respectively), twice a week for 2 weeks, while on high-fat diet. All animals were sacrificed after 4 days from last injection.
# Table 1 below provides the results of nap WAT weight after 4 days from treatment.
# abdominal adipose tissue = test: Intraperitoneal (i.p.) injection to mice, gross pathology and abdominal fat; assay type: in vivo
# Method: 42 wks old male mice (35-42 g body wt.) were i.p. injected with either vehicle (=Control, 10 mice) or with MTK-012 dissolved in that vehicle (10 mice).
# Vehicle composition: aqueous solution of 4% Tween20 (Sigma, P7949) and 20% Propylene-Glycol (Sigma, P4347).
# MTK-012 was dissolved in vehicle composition at a final concentration of 5 mg/ml.
# The mice were initially (t=0) injected a dose of 20 mg/kg, or the equivalent volume of vehicle to the controls (solid arrow in FIG. 1). Three weeks later the mice were injected a double dose of 40 mg/kg of MTK-012 or 40 mg/kg of vehicle (broken arrow in FIG. 1).
# Body weight was measured once a week; the results are shown in FIG. 1 and expressed as the % change in body weight relative to the body weight on day 0.
# At t=6 wks the animals were sacrificed and dissected for gross pathology.
# Sequence of protein kinase CDC42-binding-protein-kinase-alpha (CDC42BPA or MRCKA) (Q5VT25 whole entry): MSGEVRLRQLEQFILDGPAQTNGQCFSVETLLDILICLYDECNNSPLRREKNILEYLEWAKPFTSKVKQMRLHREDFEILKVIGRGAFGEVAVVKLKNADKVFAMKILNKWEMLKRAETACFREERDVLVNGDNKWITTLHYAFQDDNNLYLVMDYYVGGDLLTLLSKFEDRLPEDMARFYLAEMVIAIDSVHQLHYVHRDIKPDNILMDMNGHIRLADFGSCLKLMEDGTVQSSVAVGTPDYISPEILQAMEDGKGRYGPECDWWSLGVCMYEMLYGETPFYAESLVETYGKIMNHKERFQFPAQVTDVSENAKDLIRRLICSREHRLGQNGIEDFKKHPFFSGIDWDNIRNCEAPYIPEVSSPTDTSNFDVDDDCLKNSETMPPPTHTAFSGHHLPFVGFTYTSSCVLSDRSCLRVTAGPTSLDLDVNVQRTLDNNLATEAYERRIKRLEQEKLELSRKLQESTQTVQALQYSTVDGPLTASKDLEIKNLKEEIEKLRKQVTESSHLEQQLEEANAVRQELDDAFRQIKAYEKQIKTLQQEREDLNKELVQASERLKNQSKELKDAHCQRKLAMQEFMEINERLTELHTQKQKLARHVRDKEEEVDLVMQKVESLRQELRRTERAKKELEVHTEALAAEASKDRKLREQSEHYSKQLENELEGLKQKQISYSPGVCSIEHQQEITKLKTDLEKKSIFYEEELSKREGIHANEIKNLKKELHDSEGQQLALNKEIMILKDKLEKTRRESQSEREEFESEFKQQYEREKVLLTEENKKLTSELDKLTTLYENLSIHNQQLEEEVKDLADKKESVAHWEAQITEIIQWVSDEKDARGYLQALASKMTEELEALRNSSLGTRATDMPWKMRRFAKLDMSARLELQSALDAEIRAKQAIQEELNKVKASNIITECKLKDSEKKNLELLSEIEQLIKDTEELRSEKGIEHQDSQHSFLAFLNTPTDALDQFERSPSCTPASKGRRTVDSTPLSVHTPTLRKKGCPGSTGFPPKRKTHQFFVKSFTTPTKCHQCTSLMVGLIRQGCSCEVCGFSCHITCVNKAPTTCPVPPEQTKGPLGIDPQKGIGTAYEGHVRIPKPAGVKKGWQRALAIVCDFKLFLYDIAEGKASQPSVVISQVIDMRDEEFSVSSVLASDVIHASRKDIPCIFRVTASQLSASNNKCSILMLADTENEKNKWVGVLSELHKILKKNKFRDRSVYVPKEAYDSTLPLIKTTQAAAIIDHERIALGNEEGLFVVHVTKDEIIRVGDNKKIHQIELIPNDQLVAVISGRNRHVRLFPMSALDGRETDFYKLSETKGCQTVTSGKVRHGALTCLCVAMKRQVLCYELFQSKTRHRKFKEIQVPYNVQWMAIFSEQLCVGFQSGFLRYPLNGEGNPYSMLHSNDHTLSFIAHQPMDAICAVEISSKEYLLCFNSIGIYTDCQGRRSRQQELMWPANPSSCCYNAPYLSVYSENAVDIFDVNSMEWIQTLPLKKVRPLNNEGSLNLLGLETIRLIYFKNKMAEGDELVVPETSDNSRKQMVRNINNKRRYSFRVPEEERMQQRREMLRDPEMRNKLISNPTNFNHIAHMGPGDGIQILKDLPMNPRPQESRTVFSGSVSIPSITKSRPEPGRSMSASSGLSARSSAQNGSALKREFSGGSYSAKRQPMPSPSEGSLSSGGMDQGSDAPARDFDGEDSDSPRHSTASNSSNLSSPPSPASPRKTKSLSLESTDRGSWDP
compound,measurement,setting,value
"C[N+](C)(C)CCCCCn1c2ccc(Br)cc2c2cc(Br)ccc21.[Cl-] [MTK-012, 5-(3,6-dibromo-9H-carbazol-9-yl)-N,N,N-trimethylpentan-1-aminium chloride]",s.c. adipose tissue (subcutaneous fat),s.c. adipose tissue,reduction in subcutaneous fat; also recorded: reduced
same,inhibition of protein kinase CDC42BPA (MRCKA) in screen,[1],significantly selective inhibition
same,"Nap WAT (g), single animals","nap WAT; 0.1 ml of 4 mg/ml intra nap fat-pad, twice a week for 2 weeks, 4 days after last injection",3.7 g and 4.1 g and 4.6 g and 3.0 g
same,Nap WAT Average (g) ± SEM,"nap WAT; 0.1 ml of 4 mg/ml intra nap fat-pad, twice a week for 2 weeks, 4 days after last injection, vehicle 5.30 ± 0.21",3.85 ± 0.34 g
same,reduction in WAT as compared with vehicle,nap WAT; nap WAT weight 4 days after treatment,significant reduction
same,general condition of treated animals,"abdominal adipose tissue; 42 wks old male mice, i.p. 20 mg/kg at t=0 and 40 mg/kg three weeks later","well and active, similar to the controls"
same,abdominal adipose tissue / abdominal fat-mass,"abdominal adipose tissue; mice at t=6 wks, i.p. 20 mg/kg then 40 mg/kg, vs vehicle control",reduction in abdominal fat-mass; also recorded: ablation of the abdominal adipose tissue
same,"gross pathology, changes other than adipose tissue","abdominal adipose tissue; mice sacrificed at t=6 wks, i.p. 20 mg/kg then 40 mg/kg",No apparent change
